The term EC50 denotes the concentration that produces a half-maximal response.

Molecules are shown by their SMILES.

The assay has as its target T1, GLP-1 R (Mus musculus, UniProt O35659).
T1 construct: GLP-1 (murine cell line) cellular assays
T1 sequence (O35659 22-463): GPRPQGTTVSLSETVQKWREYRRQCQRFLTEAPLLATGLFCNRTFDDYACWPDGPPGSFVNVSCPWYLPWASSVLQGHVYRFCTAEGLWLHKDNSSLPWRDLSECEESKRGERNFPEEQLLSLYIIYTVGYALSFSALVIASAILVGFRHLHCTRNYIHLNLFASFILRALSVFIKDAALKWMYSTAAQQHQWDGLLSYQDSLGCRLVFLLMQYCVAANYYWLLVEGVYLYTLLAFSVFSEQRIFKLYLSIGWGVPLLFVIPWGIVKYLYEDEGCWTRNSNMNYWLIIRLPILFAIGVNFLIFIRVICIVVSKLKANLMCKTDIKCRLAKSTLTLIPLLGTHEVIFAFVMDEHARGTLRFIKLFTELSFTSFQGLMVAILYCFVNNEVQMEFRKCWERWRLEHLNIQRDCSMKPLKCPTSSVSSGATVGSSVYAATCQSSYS
The assay can be described thus: GLP-1 cellular assay, cAMP stimulation (murine cell line, Cerep). It is filed as cell-based. To be noted: n.c. = EC50 not calculable. The method, then: Compounds were weighed precisely in an amount of approximately 1 mg and assayed in standard cellular assays (Cerep SA). The readout is the amount of cAMP generated in the cells treated with the test compounds, in either agonist or antagonist mode. […] The assays are described in Chicchi, G. G., et al. (1997) J Biol Chem 272: 7765-7769 and Runge, S., et al. (2003) Br J Pharmacol 138: 787-794.

Regarding `CCCCCCCCCCCCO[C@@H]1O[C@H](C(=O)NCCCC[C@H](NC(=O)[C@@H]2CCCCNC(=O)CC[C@H](NC(=O)[C@H](CC(=O)O)NC(=O)[C@H](CC(C)C)NC(=O)[C@H](Cc3ccc(O)cc3)NC(=O)[C@H](CCCCN)NC(=O)[C@H](CO)NC(=O)[C@H](Cc3ccc(O)cc3)NC(=O)[C@H](CC(=O)O)NC(=O)[C@H](CO)NC(=O)[C@@H](NC(=O)[C@H](Cc3ccccc3)NC(=O)[C@@H](NC(=O)CNC(=O)[C@H](CCC(N)=O)NC(=O)C(C)(C)NC(=O)[C@@H](N)Cc3c[nH]cn3)[C@@H](C)O)[C@@H](C)O)C(=O)N[C@@H](CCCNC(=N)N)C(=O)N[C@@H](C)C(=O)N[C@@H](C)C(=O)N2)C(=O)N[C@@H](Cc2ccccc2)C(=O)NC(C)(C)C(N)=O)[C@@H](O)[C@H](O)[C@H]1O` [EU-A455], the EC50 was 59 nM.

Source of the values: US10005817B2, “Peptide pharmaceuticals” (EUMEDERIS PHARMACEUTICALS, INC., priority 2012, dated 2018).
